Where “and” joins values, the source holds several entries; their conditions need not be identical. Equal entries are not always repeated. Entries after “also recorded” stand apart in the source; their conditions may differ. Where two headings read alike, the source gives them in different places.
Tests used:
[1] = Pharmacokinetics and absolute bioavailability in rats (LC-MS/MS); type: in vivo; details: rat; for MRT inf: read-out: MRT0-∞
From the text: A LC-MS/MS method for determination of compound I-5 and compound M2 in rat plasma was established through experiments to investigate the pharmacokinetic characteristics and absolute bioavailability of compounds in rats.
20 SPF-grade SD male rats (body weight 220±20 g), purchased from Beijing Vital River Laboratory Animal Technology Co., Ltd.
• Chromatographic column: waters BEH C18 1.7 μm; 2.1×100 mm Column • Internal standard: D-I-5 (deuterated compound I-5, with the following structural formula)
20 SD rats were randomly divided into 4 groups, with 5 rats in each group. […]
50 μL plasma was taken, 50 μL D-I-5 (20 ng/mL dissolved in acetonitrile) was added, the mixture was whirled for 30 s, then 100 μL acetonitrile was added; the mixture was fully whirled for 2 min, and was centrifuged at 4° C. at 12000 r/min for 3 min, 50 μL supernatant was taken, 50 μL aqueous solution was added for dilution, followed by whirling for Imin, and 4 μL sample was injected.
The mean plasma concentration-time curves of rats after oral intragastric administration and intravenous administration were respectively shown in FIGS. 8 and 9. Data were processed using DAS 3.0 pharmacokinetic software (Chinese Professional Committee of Mathematical Pharmacology, Shanghai, China), and statistical moment parameters of the non-compartmental model were calculated, Cmax and Tmax being measured values.

C57 BL/6J male mice = assay: Forced swimming experiment in mice; type: in vivo
From the text: 1) Forced Swimming Experiment: Also Known as Despair Experiment, an Experiment Usually Used to Test Depression-Like Behavior of Mice
• Animal: C57 BL/6J male mice (18-20 g)
Intraperitoneal injection (i.p)

[2] = test system: NA reuptake in rat brain synaptosomes; assay: 3H-NA reuptake by rat brain synaptosomes; type: biochemical; details: 3H-NA 10 nM, rat brain synaptosomes; read-out: NA inhibition rate % IC50
From the text: At present, it is believed that absolute or relative deficiencies of the central monoamine neurotransmitters 5-hydroxytryptamine (5-HT), norepinephrine (NA) and dopamine (DA) are closely related to depression and anxiety.
Synaptosomes were separated using methods in literature to prepare brain synaptosomes. SD rats were rapidly decapitated with a small animal decapitator. After decapitation, brains were taken out quickly and precooled in an ice-water mixture, and the pia mater and vascular tissue were removed. Brain tissue was taken out. 10 times volume (ml/g) of 10 mM Tris HCl buffer (containing 0.32 M sucrose, pH 7.4) was added, an ultrasonic cell pulverizer was used for homogenization (maintaining at a low temperature), and the brain tissue was homogenized and centrifuged for 10 min (4° C., 1,000 g). After balanced centrifugation (1500 g, 10 min) at 4° C., precipitate was discarded, then supernatant was taken, and centrifugation (20000 g) was performed again for 30 min. The supernatant was discarded and the precipitate, i.e. crude extract of synaptic corpuscles, was retained. The precipitate was further suspended in 0.32 M cold sucrose solution and then carefully laid on 1.2 M and 0.8 M (10 ml each) cold sucrose gradient solutions which had been laid sequentially on the bottom of the tube, followed by balanced centrifugation (38000 g) at 4 °C for 60 min. A suspension band at the 0.8-1.2 M sucrose interface was carefully collected with a puncture needle, which was placed in 10 ml of 0.32 M cold sucrose solution and mixed well, and equilibrium centrifuged (20000 g) at 4 °C for 30 min. The precipitate was refined brain synaptosomes. […]
The percentage inhibition of isotope ligand binding by each compound was calculated according to the following equation: […]

[3] = male, SD, plasma, po, intragastric administration 12.5 mg/kg, n = 5
[4] = male, SD, plasma, intravenous administration 2.5 mg/kg, n = 5
[5] = male, Sprague-Dawley (SD), plasma, po, intragastric administration 12.5 mg/kg, n = 5
[6] = male, Sprague-Dawley (SD), plasma, intravenous administration 2.5 mg/kg, n = 5

For `NC(=O)/C=C/c1cc2c(c(C(F)(F)F)c1)OCO2` [Compound M2], the bioavailability ([1]; male, SD, plasma, oral, absolute bioavailability, intragastric 12.5 mg/kg vs intravenous 2.5 mg/kg, read-out: F (bioavailability, %)) was 40.8%, the AUC(0-t) [1, 3] was 1080 ± 373 ng·h/mL and the Tmax [1, 3] was 21 min. It also gave a half-life [1, 3] of 61.8 ± 20.4 min, a C0 [1, 4] of 1640 ± 319 ng/mL and a half-life [1, 4] of 14.4 ± 1.8 min. For the same compound, the concentration at 0.08 h ([1]; male, SD, plasma, iv, 2.5 mg/kg, single intravenous 2.5 mg/kg, 0.08 h, read-out: Plasma concentration, Mean) was 1210 ng/mL, the concentration at 0.08 h ([1]; male, SD, plasma, iv, 2.5 mg/kg, single intravenous 2.5 mg/kg, 0.08 h, read-out: Plasma concentration, individual rats) was 1090 ng/mL and the concentration at 0.25 h ([1]; male, SD, plasma, iv, 2.5 mg/kg, single intravenous 2.5 mg/kg, 0.25 h, read-out: Plasma concentration, Mean) was 639 ng/mL. It also gave a concentration at 0.25 h ([1]; male, SD, plasma, iv, 2.5 mg/kg, single intravenous 2.5 mg/kg, 0.25 h, read-out: Plasma concentration, individual rats) of 575 ng/mL, a concentration at 0.5 h ([1]; male, SD, plasma, iv, 2.5 mg/kg, single intravenous 2.5 mg/kg, 0.50 h) of 315 ng/mL and a concentration at 1 h ([1]; male, SD, plasma, iv, 2.5 mg/kg, single intravenous 2.5 mg/kg, 1 h, read-out: Plasma concentration, Mean) of 79 ng/mL. It also gave a concentration at 2 h ([1]; male, SD, plasma, iv, 2.5 mg/kg, single intravenous 2.5 mg/kg, 2 h) of 5.46 ng/mL, a concentration at 3 h ([1]; male, SD, plasma, iv, 2.5 mg/kg, single intravenous 2.5 mg/kg, 3 h) of 3.21 ng/mL and a concentration at 0.08 h ([1]; male, SD, plasma, oral, 12.5 mg/kg, single intragastric 12.5 mg/kg, 0.08 h, read-out: Plasma concentration, Mean) of 191 ng/mL. For the same compound, the concentration at 0.25 h ([1]; male, SD, plasma, oral, 12.5 mg/kg, single intragastric 12.5 mg/kg, 0.25 h, read-out: Plasma concentration, Mean) was 398 ng/mL, the concentration at 0.5 h ([1]; male, SD, plasma, oral, 12.5 mg/kg, single intragastric 12.5 mg/kg, 0.50 h) was 387 ng/mL and the concentration at 1 h ([1]; male, SD, plasma, oral, 12.5 mg/kg, single intragastric 12.5 mg/kg, 1 h, read-out: Plasma concentration, Mean) was 211 ng/mL. The concentration at 1 h ([1]; male, SD, plasma, oral, 12.5 mg/kg, single intragastric 12.5 mg/kg, 1 h, read-out: Plasma concentration, individual rats) was 145 ng/mL, the concentration at 2 h ([1]; male, SD, plasma, oral, 12.5 mg/kg, single intragastric 12.5 mg/kg, 2 h) was 132 ng/mL and the concentration at 3 h ([1]; male, SD, plasma, oral, 12.5 mg/kg, single intragastric 12.5 mg/kg, 3 h) was 134 ng/mL. For the same compound, the concentration at 4 h ([1]; male, SD, plasma, oral, 12.5 mg/kg, single intragastric 12.5 mg/kg, 4 h, read-out: Plasma concentration, Mean) was 164 ng/mL, the concentration at 6 h ([1]; male, SD, plasma, oral, 12.5 mg/kg, single intragastric 12.5 mg/kg, 6 h) was 86.7 ng/mL and the concentration at 8 h ([1]; male, SD, plasma, oral, 12.5 mg/kg, single intragastric 12.5 mg/kg, 8 h, read-out: Plasma concentration, Mean) was 2.07 ng/mL. For the same compound, the concentration at 8 h ([1]; male, SD, plasma, oral, 12.5 mg/kg, single intragastric 12.5 mg/kg, 8 h, read-out: Plasma concentration, individual rats) was 5.38 ng/mL, the Cmax ([1]; male, SD, plasma, po, 12.5 mg/kg, intragastric administration 12.5 mg/kg, n = 5, read-out: Cmax) was 425 ± 137 ng/mL and the AUC(0-inf) [1, 5] was 1120 ± 367 ng·h/mL. For the same compound, the AUC(0-t) [1, 5] was 1080 ± 373 ng·h/mL, the MRT inf [1, 5] was 151 ± 36.6 min and the AUC(0-inf) [1, 6] was 532 ± 127 ng·h/mL. For the same compound, the AUC(0-t) [1, 6] was 529 ± 130 ng·h/mL, the MRT inf [1, 6] was 18.6 ± 3.6 min and the Cmax ([1]; intragastric administration 12.5 mg/kg, n = 5, 12.5 mg/kg) was 425.47 ± 136.97 ng/mL. For the same compound, the “Plasma concentration, individual rats” value ([1]; single intragastric 12.5 mg/kg, 0.08 h) was 78.15 ng/mL and 127.05 ng/mL and 78.40 ng/mL and 240.77 ng/mL and 433.00 ng/mL, the “Plasma concentration, individual rats” value ([1]; single intragastric 12.5 mg/kg, 0.25 h) was 213.75 ng/mL and 487.46 ng/mL and 212.80 ng/mL and 494.43 ng/mL and 582.67 ng/mL and the “Plasma concentration, individual rats” value ([1]; single intragastric 12.5 mg/kg, 0.50 h) was 270.87 ng/mL and 411.67 ng/mL and 291.90 ng/mL and 416.38 ng/mL and 542.56 ng/mL. For the same compound, the “Plasma concentration, individual rats” value ([1]; single intragastric 12.5 mg/kg, 1 h) was 184.82 ng/mL and 165.92 ng/mL and 270.26 ng/mL and 288.12 ng/mL, the “Plasma concentration, individual rats” value ([1]; single intragastric 12.5 mg/kg, 2 h) was 90.66 ng/mL and 71.40 ng/mL and 131.47 ng/mL and 231.27 ng/mL and 133.28 ng/mL and the “Plasma concentration, individual rats” value ([1]; single intragastric 12.5 mg/kg, 3 h) was 175.71 ng/mL and 60.26 ng/mL and 194.74 ng/mL and 114.91 ng/mL and 122.55 ng/mL. The “Plasma concentration, individual rats” value ([1]; single intragastric 12.5 mg/kg, 4 h) was 268.66 ng/mL and 107.99 ng/mL and 188.58 ng/mL and 66.64 ng/mL and 188.12 ng/mL, the “Plasma concentration, individual rats” value ([1]; single intragastric 12.5 mg/kg, 6 h) was 57.55 ng/mL and 48.74 ng/mL and 11.84 ng/mL and 15.99 ng/mL and 299.46 ng/mL and the “Plasma concentration, individual rats” value ([1]; single intragastric 12.5 mg/kg, 8 h) was “BLOQ (3×) and 3.64 ng/mL”. The “Plasma concentration, individual rats” value ([1]; single intravenous 2.5 mg/kg, 0.08 h, 2.5 mg/kg) was 1221.94 ng/mL and 1589.64 ng/mL and 991.98 ng/mL and 1170.61 ng/mL, the “Plasma concentration, individual rats” value ([1]; single intravenous 2.5 mg/kg, 0.25 h, 2.5 mg/kg) was 742.62 ng/mL and 807.81 ng/mL and 497.57 ng/mL and 574.42 ng/mL and the “Plasma concentration, individual rats” value ([1]; single intravenous 2.5 mg/kg, 0.50 h, 2.5 mg/kg) was 281.81 ng/mL and 435.1 ng/mL and 406.94 ng/mL and 201.98 ng/mL and 248.89 ng/mL. The “Plasma concentration, individual rats” value ([1]; single intravenous 2.5 mg/kg, 1 h, 2.5 mg/kg) was 74.30 ng/mL and 130.96 ng/mL and 92.59 ng/mL and 39.74 ng/mL and 57.32 ng/mL, the “Plasma concentration, individual rats” value ([1]; single intravenous 2.5 mg/kg, 2 h, 2.5 mg/kg) was 4.62 ng/mL and 12.27 ng/mL and 2.23 ng/mL and BLOQ and 2.72 ng/mL and the “Plasma concentration, individual rats” value ([1]; single intravenous 2.5 mg/kg, 3 h, 2.5 mg/kg) was 2.035 ng/mL and 4.403 ng/mL and BLOQ (3×). The “Plasma concentration, individual rats” value ([1]; single intravenous 2.5 mg/kg, 4 h) was “BLOQ”, the “Plasma concentration, individual rats” value ([1]; single intravenous 2.5 mg/kg, 6 h) was “BLOQ” and the “Plasma concentration, individual rats” value ([1]; single intravenous 2.5 mg/kg, 8 h) was “BLOQ”. The antidepressant-like effect (C57 BL/6J male mice; 24 h after a single i.p. administration, fluoxetine 10 mg/kg, esketamine 10 mg/kg, M2 3-30 mg/kg) was “had antidepressant-like effect”, the “immobility time of mice in forced swimming” value (C57 BL/6J male mice; 24 h after single i.p. administration, dosage effect, significant at 30 mg/kg, 30 mg/kg) was “reduce the immobility time; also recorded: significantly reduced” and the IC50 [2] was 23.5 ± 3.56 nM.
